Source: US20030229007A1, “Form of human renin and its use as a target in treatments for cardiac ischemia and arrhythmia” (priority 2002, published 2003)
Counter-ions that a name gives are not always drawn. Square brackets hold non-standard residues; d marks the D form. Peptide text beside a SMILES is read from it. * marks the point of attachment. Sta = CC(C)C[C@H](N)[C@@H](O)CC(=O)O; Isovaleryl = CC(C)CC(=O)*

Tests used:
[1] = test system: human right atrial tissue; test: NE release from human right atrium incubated in ischemic conditions; format: cell-based; details: 70 min ischemia
Excerpt: Source of human cardiac tissue. Specimens of right atrium (i.e., surgical waste tissue) were obtained from 34 patients undergoing cardiopulmonary bypass [29 males and 5 females, age 64.9±1.6 years; coronary artery bypass grafting (CABG) 30, valve replacement 4], following a protocol approved by the Institutional Review Board. Eight of the 30 CABG patients were chronically treated with β-adrenoceptor blocking agents. […] All patients chronically treated with ACE inhibitors were excluded from the study. At the time of surgery, a piece of atrial appendage measuring ˜1 cm^3 was removed from the atriotomy site.
Incubation of atrial tissue. Atrial specimens were immediately transported to the laboratory in ice-cold oxygenated Krebs-Henseleit solution (KHS) of the following composition (mM): NaCl 118.2, KCl 4.83, CaCl2 2.5, MgSO4 2.37, KH2PO4 1.0, NaHCO3 25, and glucose 11.1. After removal of fat and connective tissue, specimens were divided into several fragments (each weighing 24.5±1.1 mg, wet weight, measured at the end of incubation). Each fragment was incubated for 15 min at 37° C. in 2 ml of KHS gassed with 95% O2 and 5% CO2 (Po2 ˜550 mm Hg, pH ˜7.4) containing the monoamine oxidase inhibitor pargyline (1 mM). Following the 15-min stabilization period, fragments were incubated for an additional 20 min in oxygenated KHS in the absence or presence of pharmacological agents. […]

[2] = test system: human cardiac synaptosomes (sympathetic nerve endings); test: Ischemic NE release from human cardiac synaptosomes incubated with angiotensinogen; format: cell-based; details: for effect on angiotensinogen-induced increase in ischemic NE release: angiotensinogen 400 nM
Description: (§1) Preparation of cardiac synaptosomes. Atrial specimens were freed from fat and connective tissue and minced in ice-cold 0.32 M sucrose containing 1 mM EGTA, pH 7.4, and 1 mM pargyline, to prevent enzymatic destruction of synaptosomal NE. Synaptosomes were isolated as previously described (Imamura et al., Circ. Res. 1995, 77:206-210). Briefly, minced tissue was digested with 120 mg collagenase (Type II, Worthington Biochemicals, Freehold, N.J.) per gm wet heart weight for 1 hr at 37° C. After low speed centrifugation (10 min at 120 g), the resulting pellet was suspended in 10 vol of 0.32 M sucrose and homogenized with a Teflon/glass homogenizer. The homogenate was spun at 650 g for 10 min and the pellet rehomogenized and respun. The pellet containing cellular debris was discarded, and the supernatants from the last two spins were combined and equally subdivided into 4 to 8 tubes and recentrifuged for 20 min at 20,000 g at 4° C. This pellet, which contained cardiac synaptosomes, was resuspended either in HEPES-buffered saline (HBS; 500 μl, normoxic conditions) or in glucose-free HBS which contained the reducing agent sodium dithionite (500 μl, ischemic conditions), and incubated in the absence or presence of angiotensinogen (for 1 hour) or other pharmacological agents for 20 min in a water bath at 37° C. prior to ischemia (see below). HBS contained 50 mM HEPES, pH 7.4, 144 mM NaCl, 5 mM KCl, 1.2 mM CaCl2, 1.2 mM MgCl2, 10 mM glucose. Each suspension functioned as an independent sample and was used only once. In every experiment, one sample was untreated (control, basal NE release).
Induction of ischemia. Ischemia was induced by incubating either atrial fragments or synaptosomes for 70 min in glucose-free KHS (atrial tissue) or HBS (synaptosomes) bubbled with 95% N2 and 5% CO2, containing the reducing agent sodium dithionite (3 mM; PO2 ˜0 mm Hg, pH ˜7.3; ischemic NE release) (Hatta et al. J. Pharmacol Exp. Ther. 1997, 283:494-500). […]

[3] = test system: human cardiac synaptosomes (sympathetic nerve endings); test: Ischemic NE release from synaptosomes isolated from human right atrium; format: cell-based; details: 70 min ischemia
Description: as §1
Induction of ischemia. Ischemia was induced by incubating either atrial fragments or synaptosomes for 70 min in glucose-free KHS (atrial tissue) or HBS (synaptosomes) bubbled with 95% N2 and 5% CO2, containing the reducing agent sodium dithionite (3 mM; PO2 ˜0 mm Hg, pH ˜7.3; ischemic NE release) (Hatta et al. J. Pharmacol Exp. Ther. 1997, 283:494-500). Matched control fragments and synaptosomes were incubated for an equivalent length of time with oxygenated KHS and HBS, respectively (normoxic NE release). When drugs were used, they were continued throughout the entire normoxic and ischemic periods.
Norepinephrine assay. Incubating media were assayed for NE by high pressure liquid chromatography with electrochemical detection (Hatta et al. J. Pharmacol Exp. Ther. 1997, 283:494-500). Perchloric acid and EDTA were added to samples to achieve final concentrations of 0.01 N and 0.025%, respectively. The NE present in the effluent was adsorbed on acid-washed alumina adjusted at pH 8.6 with Tris-2% EDTA buffer, and then extracted into 150 μl of 0.1 N perchloric acid. These final sample aliquots were injected onto a 3 μm ODS reverse-phase column (3.2×100 mm, Bioanalytical System, West Lafayette, Ind.) with an applied potential of 0.65 V. The mobile phase consisted of monochloroacetic acid (75 mM), sodium EDTA (0.5 mM), sodium octylsulfate (0.5 mM) and acetonitrile (1.5%) at pH 3.0. The flow rate was 1.0 ml/min. No NE breakdown occurred during the 70-min ischemic period. Dihydroxybenzylamine was added to each sample as an internal standard prior to alumina extraction and used for calculation of the recovery during the extraction procedure. This recovery was 77% or better. The detection limit was approximately 0.2 pmol.

[4] = test system: human right atrial tissue; details: as previously reported (Hatta et al. 1997); cited from earlier work

CC(C)C[C@H](O)[C@H](O)[C@H](CC1CCCCC1)NC(=O)[C@@H](CC(=O)N(CC(=O)N(C)CCc1ccccn1)CC1CCCCC1)Cc1csc(N)n1 [BILA 2157BS]
decrease in NE release ([1]; 30 nM): ~60% | effect on angiotensinogen-induced increase in ischemic NE release ([2]; 100 nM): prevented | suppression of the enhancement in NE release elicited by ischemia ([3]; 100 nM): ~70%

CNCCCN1c2ccccc2CCc2ccccc21 [DMI, desipramine hydrochloride]
effect on ischemic NE release from atrial tissue [4]: inhibited | inhibition at 0.3 µM ([3]; Homo sapiens, 70 min, 300 nM): ~50%

CCN(c1nc(N)c(C(=O)N=C(N)N)nc1Cl)C(C)C [EIPA, 5-(N-ethyl-N-isopropyl)-amiloride]
inhibition of ischemic NE release ([3]; 30 μM): ~50%

C[C@H](N[C@@H](CCc1ccccc1)C(=O)O)C(=O)N1CCC[C@H]1C(=O)O [enalaprilat, Enalaprilat]
effect on angiotensinogen-induced increase in ischemic NE release ([2]; 3 μM): prevented | reduction of the increase in NE release caused by ischemia ([3]; 3 μM): ~80%

CC(C)CC(=O)N[C@H](C(=O)N[C@H](C(=O)N[C@@H](CC(C)C)[C@@H](O)CC(=O)N[C@@H](C)C(=O)N[C@@H](CC(C)C)[C@@H](O)CC(=O)O)C(C)C)C(C)C [pepstatin-A] (Isovaleryl-VV[Sta]A[Sta]-OH)
decrease in NE release ([1]; 30 μM): ~70% | suppression of the enhancement in NE release elicited by ischemia ([3]; 30 μM): ~70%

B1: angiotensinogen: Human plasma angiotensinogen, renin substrate, purchased from Sigma-Aldrich (protein, UniProt P01019 25-476, looked up)
Angiotensinogen: DRVYIHPFHLVIHNESTCEQLAKANAGKPKDPTFIPAPIQAKTSPVDEKALQDQLVLVAAKLDTEDKLRAAMVGMLANFLGFRIYGMHSELWGVVHGATVLSPTAVFGTLASLYLGALDHTADRLQAILGVPWKDKNCTSRLDAHKVLSALQAVQGLLVAQGRADSQAQLLLSTVVGVFTAPGLHLKQPFVQGLALYTPVVLPRSLDFTELDVAAEKIDRFMQAVTGWKTGCSLMGASVDSTLAFNTYVHFQGKMKGFSLLAEPQEFWVDNSTSVSVPMLSGMGTFQHWSDIQDNFSVTQVPFTESACLLLIQPHYASDLDKVEGLTFQQNSLNWMKKLSPRTIHLTMPQLVLQGSYDLQDLLAQAELPAILHTELNLQKLSNDRIRVGEVLNSIFFELEADEREPTESTQQLNKPEVLEVTLNRPFLFAVYDQSATALHFLGRVANPLSTA
increase in ischemic NE release ([2]; 400 nM angiotensinogen, 70 min ischemia): ~70%
